# From publication PMC9266914, “Broad Spectrum Functional Activity of Structurally Related Monoanionic Au(III) Bis(Dithiolene) Complexes” (International Journal of Molecular Sciences, 2022)
# Read-outs that look alike come from different tables or passages of the source. Marks after values point to notes of the source that are not given here.
# Experiments:
# [1] = tested on: A2780 ovarian cancer cells; experiment: MTT cytotoxicity assay in A2780 (cisplatin sensitive) ovarian cancer cells; format: cell-based, human
# Protocol: (§1) Cells were exposed to increasing concentrations of the complexes (0.01–100 μM) for 24 and/or 48 h, at 37 °C. The IC50 values were calculated from dose–response curves using the colorimetric MTT assay. […] Most complexes presented a similar cytotoxicity profile compared to Auranofin, but higher activity compared to Cisplatin, and, most importantly, were active in the Cisplatin-resistant OVCAR8 cells (Table 2).
# (§2) The cytotoxic activity of the complexes was evaluated in the A2780 (cisplatin sensitive) (Sigma-Aldrich) and OVCAR8 (cisplatin resistant) (ATCC) ovarian cancer cells. Cells were grown in RPMI-1640 medium (Gibco, Thermo Fisher) supplemented with 10% fetal bovine serum (FBS) and were maintained at 37 °C in a humidified atmosphere with 5% CO2. The complexes were initially dissolved in DMSO and then in culture medium to prepare serial dilutions in the range 10^−9–10^−4 M. After 24 and/or 48 h incubation the cellular viability was measured by the colorimetric MTT assay, as previously described.
# [2] = tested on: E. coli ATCC25922; experiment: MIC determination, E. coli; format: cell-based, Escherichia coli; settings: MH broth, 22 h, 37 °C
# Text: (§3) The bacterial strains Escherichia coli ATCC25922 and Staphylococcus aureus Newman were used in this work and maintained in Lennox Broth (LB) solid medium, composed of 10 g/L tryptone, 5 g/L yeast extract, 5 g/L NaCl and 20 g/L agar. The fungal strains Candida albicans SC5134 and C. glabrata CBS138 were used in this work and maintained in YPD solid medium, composed of 20 g/L glucose, 20 g/L peptone, 10 g/L yeast extract and 15 g/L agar. The strains were isolated from human infections.
# (§4) The antimicrobial activity of the complexes towards the bacterial and fungal strains was assessed by the determination of the Minimal Inhibitory Concentration (MIC) of each complex towards the indicated microbial strains, based on standard methods, and as previously described. […] Serial 1:2 dilutions of stock solutions were prepared for each complex in Mueller–Hinton (MH) broth (Fluka Analytical) or RPMI-1640 medium (Sigma) supplemented with 20 g/L glucose and buffered with 0.165 M morpholinepropanesulphonic acid (RPMIG) to pH 7.0. Solutions prepared with MH were used for testing bacteria, while those prepared with RPMIG were used for testing fungi. For antibacterial activity assays, the final concentrations ranged from 250 to 0.24 μg/mL (when stock solution final concentration was 10 mg/mL), 125 μg/mL to 0.12 μg/mL (when stock solution final concentration was 5 mg/mL) and 62.5 to 0.06 μg/mL (when stock solution final concentration was 2.5 mg/mL). For antifungal assays, the final concentrations ranged from 125 μg/mL to 0.12 μg/mL (when stock solution final concentration was 10 mg/mL), 62.5 to 0.06 μg/mL (when stock solution final concentration was 5 mg/mL) and 31.25 to 0.03 μg/mL (when stock solution final concentration was 2.5 mg/mL). Then, 100 μL aliquots of adequately diluted bacterial suspensions of S. aureus Newman or E. coli ATCC 25922 were mixed with the MH serially diluted complexes aliquots to obtain 5 × 10^5 CFU/mL. In the case of fungi, cultures were diluted to obtain a final optical density of 0.025, measured at 530 nm (OD530). Bacterial suspensions were prepared from cultures grown for 5 h in MH broth at 37 °C and 250 rev·min^−1 and adequately diluted with fresh MH medium, while fungal suspensions were prepared from overnight cultures grown in YPD broth at 30 °C and 250 rev.min^−1 and diluted in buffered RPMIG. After 22 h of incubation at 37 °C (bacteria) or 24 h at 35 °C (fungi), the wells’ content was resuspended by pipetting and the OD640 (bacteria) or OD530 (fungi) were measured in a SPECTROstar Nano microplate reader (BMG Labtech).
# (§5) At least three independent experiments were performed in duplicate for each complex under study. […] Positive (no complex) and negative controls (no inoculum) were performed for each experiment. The effect of 5% (V/V) DMSO on microbial growth was also assessed.
# [3] = tested on: OVCAR8 ovarian cancer cells; experiment: MTT cytotoxicity assay in OVCAR8 (cisplatin resistant) ovarian cancer cells; format: cell-based, human; settings: 48 h incubation
# Protocol: as §1, §2
# [4] = tested on: S. aureus Newman; experiment: MIC determination, S. aureus; format: cell-based, Staphylococcus aureus; settings: MH broth, 22 h, 37 °C
# Text: as §3, §4, §5
# [5] = tested on: C. albicans SC5134; experiment: MIC determination, C. albicans; format: cell-based, Candida albicans; settings: RPMIG, 24 h, 35 °C
# Text: as §3, §4, §5
# [6] = tested on: C. glabrata CBS138; experiment: MIC determination, C. glabrata; format: cell-based, Candida glabrata; settings: RPMIG, 24 h, 35 °C
# Text: as §3, §4, §5
# [7] = Cyclic voltammetry; format: physicochemical; settings: for E1/2 −1/0, first value of cell (anodic peak) / E −2/−1 (reduction of monoanion into dianion) / E1/2 −1/0, second value of cell (cathodic peak) / Epa2 0/+1 / Epc2 0/+1: CH2Cl2, NBu4PF6, Pt, 100 mV.s^−1; for potential difference between the second and the first oxidation potentials: CH2Cl2, NBu4PF6
# Text: The redox properties of the various gold(III) bis(dithiolene) and bis(diselenolene) complexes were investigated by cyclic voltammetry using the same conditions, dichloromethane solutions and NBu4PF6 as supporting electrolyte. Under these conditions, the nature of the counter-ion, Ph4P^+ or Et4N^+, had no influence on the redox properties observed, due to ion exchange with the Bu4N^+ of the supporting electrolyte. Thus, only the result of one monoanion is included in Table 1, even if the two salts were analyzed. For all the investigated monoanionic bis(dithiolene) complexes, three redox processes are observed on the cyclic voltammograms. On the anodic scan, the two oxidation waves correspond to the oxidation of the monoanionic species into the neutral and to the monocationic complex. Most of these complexes had the tendency to deposit on the electrode once oxidized and frequently a strong desorption peak was observed on the reversible scan. This phenomenon occurs essentially for the complex with an exocyclic sulfur atom, [AuSR(=S)]^−1. On the cathodic scan, an irreversible process associated with the reduction in the monoanion into the dianion occurs (Scheme 2). […] The presence of oxygen instead of sulfur makes the oxidation of the monoanionic into the neutral species easier. On the other hand, the presence of electron-withdrawing substituents such as =C(CN)2 induces an anodic shift of the oxidation potentials by 300 mV, compared with the =O derivative, leading to a monoanion which is more difficult to oxidize than the other complexes of the series. […] Indeed, the potential difference between the second and the first oxidation potentials amounts to 470 mV and 410 mV for the =O and the =C(CN)2 derivatives, respectively, while for the =S analogues this value is smaller (170 mV). […] For comparison, we also investigated the redox behavior of Auranofin using the same experimental conditions in CH2Cl2 in the presence of NBu4PF6 as a supporting electrolyte. Using these conditions, upon anodic scan only one irreversible oxidation process is observed at 1.42 V vs. SCE. Therefore, all these monoanionic gold bis(dithiolene) and bis(diselenolene) complexes are easier to oxidize than Auranofin.
# All reagents and materials from commercial sources were used without further purification. NMR spectra were recorded at room temperature using CDCl3 unless otherwise stated (Figures S7–S15). Chemical shifts are reported in ppm and ^1H NMR spectra were referenced to residual CHCl3 (7.26 ppm) and ^13C NMR spectra were referenced to CHCl3 (77.2 ppm). Mass spectra were recorded with an Agilent 6510 instrument for organics compounds and with a Thermo-Fisher Q-Exactive instrument for complexes by the Center Régional de Mesures Physiques de l’Ouest, Rennes. Cyclic voltammograms (CV)s were carried out on a 10^−3 M solution of complex in CH2Cl2-[NBu4] [PF6] 0.1 M. CVs were recorded on a Biologic SP-50 instruments at 0.1 Vs^−1 on a platinum disk electrode. Potentials were measured versus KCl Saturated Calomel Electrode (SCE). Column chromatography was performed using silica gel Merck 60 (70–260 mesh). The solvents were purified and dried by standard methods. The proligand 2-SEt(=C(CN2)), [72] and complexes [N][AuSMe(=S)], [73] [N][AuSEt(=S)], [74] [P][AuSEt(=O)], [75] [N][AuSeEt(=S)] [75] and [P][AuSPr(=S)] [76] were synthesized according to the previously reported procedure.
# [8] = 24 h incubation, read-out: IC50 A2780, 24 h
# [9] = 48 h incubation, read-out: IC50 A2780, 48 h
SMILES,"E1/2 −1/0, first value of cell (anodic peak) [7]",E −2/−1 (reduction of monoanion into dianion) [7],"E1/2 −1/0, second value of cell (cathodic peak) [7]",Epa2 0/+1 [7],Epc2 0/+1 [7],further results
CCCn1c2c(sc1=S)[S][Au-]1([S]c3sc(=S)n(CCC)c3[S]1)[S]2.CC[N+](CC)(CC)CC [[N][AuSPr(=S)]],,,,,,"IC50 [1, 8]: 2.93 ± 0.81 µM; IC50 [1, 9]: 2.28 ± 0.69 µM; MIC E. coli ATCC25922 [2]: >250 µg/mL; IC50 [3]: 2.28 ± 0.19 µM; MIC S. aureus Newman [4]: 1.1 ± 0.2 µg/mL; MIC C. albicans SC5134 [5]: 3.1 µg/mL; MIC C. albicans SC5134 ([5]; listed as [ N ][AuSPr(=S)]): 3.1 ± 0.5 µg/mL; MIC C. glabrata CBS138 [6]: 1.6 ± 0.8 µg/mL"
CCn1c2c(sc1=[Se])[S][Au-]1([S]c3sc(=[Se])n(CC)c3[S]1)[S]2 [[AuSEt(=Se)]^−1],0.40/− ** V vs. SCE,−0.80 ** V vs. SCE,,,,
CC[N+](CC)(CC)CC.CCn1c2c(sc1=[Se])[Se][Au-]1([Se]c3sc(=[Se])n(CC)c3[Se]1)[Se]2 [[N][AuSeEt(=Se)]],,,,,,"IC50 [1, 8]: 26.9 ± 3.02 µM; IC50 [1, 9]: 4.84 ± 1.6 µM; MIC E. coli ATCC25922 [2]: >62.5 µg/mL; IC50 [3]: 13.9 ± 1.61 µM; MIC S. aureus Newman [4]: >62.5 µg/mL; MIC C. albicans SC5134 [5]: >31.25 µg/mL; MIC C. glabrata CBS138 [6]: 1.8 ± 0.5 µg/mL"
Cn1c2c(sc1=S)[S][Au-]1([S]c3sc(=S)n(C)c3[S]1)[S]2 [[AuSMe(=S)]^−1],0.51 V vs. SCE,−0.85 V vs. SCE,0.44 V vs. SCE,0.73 V vs. SCE,0.56 V vs. SCE,
CCCn1c2c(sc1=S)[S][Au-]1([S]c3sc(=S)n(CCC)c3[S]1)[S]2 [[AuSPr(=S)]^−1],0.56 V vs. SCE,−0.85 ** V vs. SCE,0.53 V vs. SCE,0.73 V vs. SCE,0.64 V vs. SCE,
CCn1c2c(sc1=O)[S][Au-]1([S]c3sc(=O)n(CC)c3[S]1)[S]2 [[AuSEt(=O)]^−1],0.42 V vs. SCE,−1.05 ** V vs. SCE,0.36 V vs. SCE,0.89 V vs. SCE,0.83 V vs. SCE,potential difference between the second and the first oxidation potentials [7]: 470 mV
CCCn1c2c(sc1=[Se])[S][Au-]1([S]c3sc(=[Se])n(CCC)c3[S]1)[S]2 [[AuSPr(=Se)]^−1],0.45/− ** V vs. SCE,−0.84 ** V vs. SCE,,,,
CCN1C(=C(C#N)C#N)SC2=C1[S][Au-]1([S]2)[S]C2=C([S]1)N(CC)C(=C(C#N)C#N)S2 [[AuSEt(=C(CN)2)]^−1],0.71 V vs. SCE,,0.66 V vs. SCE,1.13 V vs. SCE,1.06 V vs. SCE,potential difference between the second and the first oxidation potentials [7]: 410 mV
CCCCn1c2c(sc1=S)[S][Au-]1([S]c3sc(=S)n(CCCC)c3[S]1)[S]2 [[AuSBu(=S)]^−1],0.55 V vs. SCE,−0.88 ** V vs. SCE,0.50 V vs. SCE,0.75 V vs. SCE,0.66 V vs. SCE,
CC[N+](CC)(CC)CC.CCn1c2c(sc1=S)[Se][Au-]1([Se]c3sc(=S)n(CC)c3[Se]1)[Se]2 [[N][AuSeEt(=S)]],,,,,,"IC50 [1, 8]: 19.2 ± 2.01 µM; IC50 [1, 9]: 4.32 ± 1.17 µM; MIC E. coli ATCC25922 [2]: >125 µg/mL; IC50 [3]: 29.4 ± 4.2 µM; MIC S. aureus Newman [4]: 5.5 ± 0.3 µg/mL; MIC C. albicans SC5134 [5]: >62.5 µg/mL; MIC C. glabrata CBS138 [6]: 1.6 ± 0.8 µg/mL"
CCCn1c2c(sc1=S)[Se][Au-]1([Se]c3sc(=S)n(CCC)c3[Se]1)[Se]2 [[AuSePr(=S)]^−1],0.54/− ** V vs. SCE,−0.90 V vs. SCE,,0.95/− V vs. SCE,,
CC(C)n1c2c(sc1=S)[Se][Au-]1([Se]c3sc(=S)n(C(C)C)c3[Se]1)[Se]2 [[AuSeiPr(=S)]^−1],0.62 V vs. SCE,−0.94 V vs. SCE,0.57 V vs. SCE,0.75/− V vs. SCE,,
CCn1c2c(sc1=[Se])[Se][Au-]1([Se]c3sc(=[Se])n(CC)c3[Se]1)[Se]2 [[AuSeEt(=Se)]^−1],0.43/− ** V vs. SCE,−0.84 ** V vs. SCE,,,,
CCn1c2c(sc1=S)[Se][Au-]1([Se]c3sc(=S)n(CC)c3[Se]1)[Se]2 [[AuSeEt(=S)]^−1],0.52/− ** V vs. SCE,−0.89 ** V vs. SCE,,,,
CCn1c2c(sc1=S)[S][Au-]1([S]c3sc(=S)n(CC)c3[S]1)[S]2 [[AuSEt(=S)]^−1],0.55 V vs. SCE,−0.90 V vs. SCE,0.49 V vs. SCE,0.71 V vs. SCE,0.61 V vs. SCE,
